Where “and” joins values, the source holds several entries; their conditions need not be identical. Equal values may be shown once. Read-outs that look alike come from different tables or passages of the source.
What was measured:
[1] = Retrospective chart review of topiramate side effect profile in 20 migraine patients; assay type: in vivo, human; set-up: key: 1: mild or none; 2: tolerable, not treatment limiting; 3: warrants trial of topiramate dose reduction; 4: considering stopping topiramate treatment strongly; conditions: topiramate alone, monotherapy for at least 6 weeks; one line per patient at the indicated daily dosage
migraine [2] = conditions: cited from earlier work; for reduction of migraine incidents vs. placebo: 50 mg/day or less
cluster headaches = conditions: cited from earlier work
migraine [3] = assay: Retrospective chart review of migraine treatment efficacy in 20 headache clinic patients; assay type: in vivo, human; set-up: concentration or dose not given beside the values; conditions: topiramate alone, monotherapy for at least 6 weeks; one line per patient at the indicated daily dosage
Protocol: (§1) In a headache clinic, 20 patients suffering from migraine are treated with a dosage of topiramate and then an additional, secondary therapeutic component comprising one of the following therapeutic agents, or mixture of agents: 1) a commercially available combination tablet sold under the name Migrelief® dietary supplement contains puracol feverfew extract (comprising partheolide), magnesium citrate/oxide (1:1), and riboflavin; and 2) a second medicine having the trade name Migravent® natural supplement containing butterbur extract (including petasin and isopetasin), and a blend of riboflavin, magnesium and coenzyme Q10; these combined ingredients are present in a “proprietary blend” of 876 mg.
(§2) In twenty patients suffering from migraine the effect of augmentation of topiramate treatment was formally documented. […] Patients were treated in combination therapy with topiramate and the indicated second agent for 6 weeks before side effect and efficacy data were obtained for comparison with the monotherapy data. Dosages of the second therapeutic component was as follows: Migravent: 150 mg pyrrolizidine alkaloids (PA) free) and 876 mg (Riboflavin, Magnesium, Co-enzyme Q-10 [propriety blend]); Migralief: Magnesium citrate and oxide 360 mg, riboflavin 400 mg and Puracol Feverfew (Tanacetum parthenium). […]

migraine [4] = assay: as above; assay type: in vivo, human; set-up: key: 1: no measurable efficacy; 2: some measurable difference in severity and or frequency of headache; 3: modest improvement in severity or frequency of headache; 4: headache frequency improvement either 50% or greater in frequency, severity or both; conditions: topiramate alone, monotherapy for at least 6 weeks; one line per patient at the indicated daily dosage
Protocol: as §1, §2

[5] = cited from earlier work
Leishmania amazonensis = conditions: cited from earlier work
[6] = system: acute myelogenous leukemia cells; conditions: normal bone marrow cells relatively unscathed; cited from earlier work

Compound	Side Effects [1]	reduction of migraine incidents vs. placebo (migraine [2])	reduction of migraine incidents vs. placebo (migraine [2]; listed as toprimate)	Side Effects (migraine [2]; 100 mg or more per day)	prophylactic effect versus placebo (migraine [2]; 100 mg per day or greater)	patients reporting an increase in migraine and other headaches (migraine [2]; human, in vivo) [%]	reduction of migraine frequency (migraine [2]; patients having an average of 5.5 migraine per month, placebo: one headache per month)	rapid relief of cluster headaches (cluster headaches; 50, 100, or 125 mg/day)	time to control the cluster headaches (cluster headaches; daily delivery in the 50-125 mg range)	Efficacy (migraine [3])	Efficacy (migraine [4])	solubility in water [5]	activity against Leishmania amazonensis (Leishmania amazonensis)	effect on acute myelogenous leukemia cells [6]
2,3:4,5-Di-O-isopropylidene-β-D-fructopyranose sulfamate [Topiramate]	1 (4×) and 4 (8×) and 3 (6×) and 2 (2×)	no statistical significance	did not show statistically significant efficacy	significant unacceptable side effects	statistically significant prophylactic effects	> 1	about 2 headaches per month	inadequate in providing rapid relief	1-3 weeks	4 (headache frequency improvement either 50% or greater in frequency, severity or both)	2 (9×) and 3 (8×)	–	–	–
C=C1C(=O)O[C@H]2[C@H]1CC/C(C)=C/CC[C@@]1(C)O[C@@H]21 [Parthenolide]	–	–	–	–	–	–	–	–	–	–	–	limited solubility in water	active against the parasite Leishmania amazonensis	destroy acute myelogenous leukemia cells by inducing apoptosis

Reference: patent US20110117070A1, “COMPOSITIONS AND METHODS FOR TREATING HEADACHE” (priority 2005, published 2011)
